US9828369B2, “Isoquinoline derivatives useful as inhibitors of diacylglyceride O-acyltransferase 2” (Merck Sharp & Dohme Corp., priority 2014, dated 2017)

Target: hDGAT2 (Homo sapiens (Human), UniProt Q96PD7)
Assay: DGAT2 enzymatic activity assay (triolein formation, LC/MS/MS)
Conditions: read-out: IC50 values for inhibition of DGAT2; membrane prep of Sf-9 cells expressing hDGAT2; 25 μM diolein, 10 μM oleoyl-CoA; room temperature; triolein by LC/MS/MS

Sequence of hDGAT2 (Q96PD7 whole entry): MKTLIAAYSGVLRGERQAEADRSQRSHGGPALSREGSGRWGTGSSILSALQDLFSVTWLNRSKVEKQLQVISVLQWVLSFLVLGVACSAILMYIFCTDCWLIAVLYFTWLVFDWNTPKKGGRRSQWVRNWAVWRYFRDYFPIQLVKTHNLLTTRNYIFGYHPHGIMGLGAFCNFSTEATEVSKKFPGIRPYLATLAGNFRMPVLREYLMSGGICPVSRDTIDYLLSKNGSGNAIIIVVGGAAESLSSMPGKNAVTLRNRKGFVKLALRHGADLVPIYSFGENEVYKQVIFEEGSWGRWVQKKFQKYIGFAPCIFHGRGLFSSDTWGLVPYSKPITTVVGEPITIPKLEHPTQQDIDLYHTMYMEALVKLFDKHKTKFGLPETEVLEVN

COc1cccc(-c2ccc(CNC(=O)C3CC3c3ccccc3)c3ccccc23)c1 (stereo not shown) [Example 172, N-((4-(3-methoxyphenyl)naphthalen-1-yl)methyl)-2-phenylcyclopropanecarboxamide]
IC50: 206 nM
